Test results taken from ChEMBL document CHEMBL1201862, “PubChem BioAssay data set” (2004).
Calls of active or inactive are those of the source.

Key:
[1] = tested on: Streptococcus sp. 'group A'; experiment: growth inhibition of control SK(-) GAS strain, dose response, counter-screen for streptokinase expression inhibitor project, luminescence, kanamycin, BacTiterGlo, confirmation (AID 1900); format: functional, organism-based
[2] = target: T1, Heat shock factor protein 1 (Mus musculus, UniProt P38532); experiment: inhibition of MG132-induced HSE-luciferase signal, confirmation, cell-based, NIH3T3, luminescence, dose retest (AID 2382); format: functional;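 further: NIH3T3 fibroblasts with HSF1-driven luciferase reporter stressed by proteasome inhibitor MG132; luminescence from HSF1-driven luciferase expression after 8 hours of MG132 stress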
T1 sequence (P38532 whole entry): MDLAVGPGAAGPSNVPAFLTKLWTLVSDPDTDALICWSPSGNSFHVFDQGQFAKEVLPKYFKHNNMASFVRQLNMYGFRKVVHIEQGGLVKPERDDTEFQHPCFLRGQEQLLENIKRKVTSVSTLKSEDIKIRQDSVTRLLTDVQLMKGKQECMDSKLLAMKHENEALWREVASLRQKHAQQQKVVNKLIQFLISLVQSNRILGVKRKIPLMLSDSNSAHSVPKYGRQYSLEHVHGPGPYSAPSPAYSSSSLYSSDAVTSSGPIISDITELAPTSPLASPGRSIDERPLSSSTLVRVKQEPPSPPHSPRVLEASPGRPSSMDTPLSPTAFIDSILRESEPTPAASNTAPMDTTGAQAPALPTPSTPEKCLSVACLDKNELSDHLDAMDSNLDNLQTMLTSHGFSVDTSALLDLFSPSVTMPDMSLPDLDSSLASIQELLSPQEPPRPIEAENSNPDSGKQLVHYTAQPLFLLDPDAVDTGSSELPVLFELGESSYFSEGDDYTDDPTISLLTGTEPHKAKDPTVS

Caspase-3 = target: T2, Caspase-3 (Homo sapiens, UniProt P42574); format: functional;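 further: Dose-response selectivity test against caspase-3 for candidate inhibitors of sentrin-specific proteases (SENPs)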
T2 sequence (P42574 whole entry): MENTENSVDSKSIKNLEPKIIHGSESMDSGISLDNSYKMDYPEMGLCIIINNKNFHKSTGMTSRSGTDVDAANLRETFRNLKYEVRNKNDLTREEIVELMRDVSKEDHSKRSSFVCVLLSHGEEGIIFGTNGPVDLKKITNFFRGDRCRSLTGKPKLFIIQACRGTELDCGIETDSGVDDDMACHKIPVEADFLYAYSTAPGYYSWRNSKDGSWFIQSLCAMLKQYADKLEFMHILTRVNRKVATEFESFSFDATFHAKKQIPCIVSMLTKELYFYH

[3] = target: T3, Apoptotic protease-activating factor 1 (Homo sapiens, UniProt O14727); format: functional
T3 sequence (O14727 whole entry): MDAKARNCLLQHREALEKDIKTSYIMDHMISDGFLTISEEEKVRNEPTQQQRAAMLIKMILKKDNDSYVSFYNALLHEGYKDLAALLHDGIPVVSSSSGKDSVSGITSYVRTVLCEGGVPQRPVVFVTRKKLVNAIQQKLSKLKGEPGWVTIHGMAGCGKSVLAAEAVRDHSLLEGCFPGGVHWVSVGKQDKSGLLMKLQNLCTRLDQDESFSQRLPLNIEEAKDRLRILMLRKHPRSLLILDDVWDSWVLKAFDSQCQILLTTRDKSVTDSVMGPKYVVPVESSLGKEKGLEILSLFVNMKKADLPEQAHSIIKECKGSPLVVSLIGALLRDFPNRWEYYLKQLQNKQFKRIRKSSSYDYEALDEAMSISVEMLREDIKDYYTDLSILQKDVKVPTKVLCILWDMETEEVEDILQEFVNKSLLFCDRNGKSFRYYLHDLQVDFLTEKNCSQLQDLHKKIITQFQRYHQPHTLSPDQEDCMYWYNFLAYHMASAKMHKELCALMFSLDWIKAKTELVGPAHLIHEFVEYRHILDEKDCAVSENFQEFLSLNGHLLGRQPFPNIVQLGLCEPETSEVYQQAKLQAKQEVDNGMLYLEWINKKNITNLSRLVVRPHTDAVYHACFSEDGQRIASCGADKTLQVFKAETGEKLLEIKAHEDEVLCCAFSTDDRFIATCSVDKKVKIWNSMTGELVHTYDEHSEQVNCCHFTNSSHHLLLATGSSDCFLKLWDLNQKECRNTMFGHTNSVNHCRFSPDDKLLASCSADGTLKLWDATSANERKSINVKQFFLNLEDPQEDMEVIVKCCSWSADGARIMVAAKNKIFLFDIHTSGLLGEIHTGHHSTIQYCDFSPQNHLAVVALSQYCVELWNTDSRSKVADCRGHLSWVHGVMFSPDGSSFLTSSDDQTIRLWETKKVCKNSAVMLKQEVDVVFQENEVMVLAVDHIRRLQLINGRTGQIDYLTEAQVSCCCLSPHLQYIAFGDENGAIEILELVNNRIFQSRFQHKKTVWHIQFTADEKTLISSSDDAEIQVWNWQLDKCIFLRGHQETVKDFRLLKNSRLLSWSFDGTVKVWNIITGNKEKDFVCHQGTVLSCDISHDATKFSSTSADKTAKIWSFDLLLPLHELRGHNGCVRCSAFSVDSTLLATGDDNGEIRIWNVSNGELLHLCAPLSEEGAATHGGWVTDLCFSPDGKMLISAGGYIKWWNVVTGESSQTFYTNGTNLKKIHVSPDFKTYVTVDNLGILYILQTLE

[4] = target: Tyrosyl-DNA phosphodiesterase 2 (Homo sapiens, UniProt O95551); experiment: human TDP2 enzyme inhibitors, dose response, biochemical, epi absorbance, IC50 (AID 743297)
BJ = experiment: cells; format: functional, cell-based; conditions: Homo sapiens
cells [5] = format: functional, cell-based
[6] = cytotoxicity toward DRD oncogenic fibroblasts, dose response, cell-based, non-viral oncogenic, luminescence (AID 1934); format: functional; conditions: Homo sapiens
[7] = target: G protein-coupled receptor kinase 5 (Homo sapiens, UniProt P34947); experiment: Navigating the Kinome. Panel member name: GPRK5; format: functional
[8] = target: Cell division cycle 7-related protein kinase (Homo sapiens, UniProt O00311); format: functional;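 further: value obtained from a kinome-wide kinase panel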
[9] = target: Homeodomain-interacting protein kinase 2 (Homo sapiens, UniProt Q9H2X6); format: functional;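 further: measured within a kinome-wide kinase profiling panel, HIPK2 being one panel member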
Misshapen-like kinase 1 = Misshapen-like kinase 1 (Homo sapiens, UniProt Q8N4C8); format: functional;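 further: kinome panel screen with MINK as the panel member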
cells [10] = format: functional, cell-based; remark: listed apart in the source
[11] = inhibitors of SNCA 5'UTR-driven reporter translation, confirmation, H4 neuroglioma cells, luminescence (AID 1988); format: functional, cell-based
[12] = inhibitors of HIV Env-driven cell fusion, dose response, cherry-pick (AID 652057); format: functional, cell-based
[13] = off-target signal loss in HeLa-CEM21 co-culture – HeLa F-luc CTL cells, cherry-picked, counter-screen for HIV-1 Env fusion inhibitor project, dose response (AID 652040); format: functional, cell-based;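 further: potency for signal decrease marking cytotoxic or nonspecific inhibition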

Chain of G protein-coupled receptor kinase 5 (P34947 whole entry): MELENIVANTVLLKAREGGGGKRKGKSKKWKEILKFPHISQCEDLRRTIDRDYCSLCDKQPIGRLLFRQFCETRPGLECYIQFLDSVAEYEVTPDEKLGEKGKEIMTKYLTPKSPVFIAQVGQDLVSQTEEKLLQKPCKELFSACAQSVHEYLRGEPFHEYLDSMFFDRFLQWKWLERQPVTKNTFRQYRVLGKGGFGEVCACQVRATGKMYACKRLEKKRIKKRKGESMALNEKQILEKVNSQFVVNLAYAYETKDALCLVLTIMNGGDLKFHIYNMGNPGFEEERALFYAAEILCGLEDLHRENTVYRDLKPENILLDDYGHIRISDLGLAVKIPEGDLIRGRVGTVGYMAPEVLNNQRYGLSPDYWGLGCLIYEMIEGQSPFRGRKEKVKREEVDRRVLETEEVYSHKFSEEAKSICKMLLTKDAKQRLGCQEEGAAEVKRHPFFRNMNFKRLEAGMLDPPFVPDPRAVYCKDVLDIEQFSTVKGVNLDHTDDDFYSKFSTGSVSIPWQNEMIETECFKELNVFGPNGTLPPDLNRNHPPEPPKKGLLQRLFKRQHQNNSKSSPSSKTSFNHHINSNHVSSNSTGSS
Chain of Homeodomain-interacting protein kinase 2 (Q9H2X6 whole entry): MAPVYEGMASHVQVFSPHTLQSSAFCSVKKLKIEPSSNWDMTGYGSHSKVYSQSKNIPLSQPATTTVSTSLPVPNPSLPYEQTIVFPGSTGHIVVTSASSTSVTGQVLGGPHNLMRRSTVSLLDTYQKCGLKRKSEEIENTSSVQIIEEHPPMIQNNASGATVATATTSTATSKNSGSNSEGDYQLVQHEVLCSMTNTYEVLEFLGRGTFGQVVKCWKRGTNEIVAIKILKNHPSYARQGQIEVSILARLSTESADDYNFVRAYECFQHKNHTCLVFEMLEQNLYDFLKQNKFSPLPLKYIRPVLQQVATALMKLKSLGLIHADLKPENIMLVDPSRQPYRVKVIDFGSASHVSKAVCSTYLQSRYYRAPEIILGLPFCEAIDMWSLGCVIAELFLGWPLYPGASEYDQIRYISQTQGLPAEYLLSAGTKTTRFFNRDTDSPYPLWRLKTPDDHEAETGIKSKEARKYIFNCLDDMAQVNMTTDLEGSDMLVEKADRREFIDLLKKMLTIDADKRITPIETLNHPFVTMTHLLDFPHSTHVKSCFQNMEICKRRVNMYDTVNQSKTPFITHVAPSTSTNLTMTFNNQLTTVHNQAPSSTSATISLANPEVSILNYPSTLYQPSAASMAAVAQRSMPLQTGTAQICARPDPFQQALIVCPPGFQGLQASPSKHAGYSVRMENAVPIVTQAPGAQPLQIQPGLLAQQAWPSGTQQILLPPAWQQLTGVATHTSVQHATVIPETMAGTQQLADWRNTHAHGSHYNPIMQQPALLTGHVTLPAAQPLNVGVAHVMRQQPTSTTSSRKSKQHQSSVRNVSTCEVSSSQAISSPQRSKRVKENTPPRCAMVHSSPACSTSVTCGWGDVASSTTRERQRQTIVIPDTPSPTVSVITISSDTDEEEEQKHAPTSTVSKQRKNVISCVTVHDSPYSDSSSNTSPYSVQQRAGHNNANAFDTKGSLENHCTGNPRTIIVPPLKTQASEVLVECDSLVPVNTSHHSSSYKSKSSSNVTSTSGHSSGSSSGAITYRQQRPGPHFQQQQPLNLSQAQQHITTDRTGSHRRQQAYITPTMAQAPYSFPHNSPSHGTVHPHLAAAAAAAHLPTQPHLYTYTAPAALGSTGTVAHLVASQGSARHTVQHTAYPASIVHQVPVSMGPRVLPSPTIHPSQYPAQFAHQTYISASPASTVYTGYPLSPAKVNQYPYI
Chain of Cell division cycle 7-related protein kinase (O00311 whole entry): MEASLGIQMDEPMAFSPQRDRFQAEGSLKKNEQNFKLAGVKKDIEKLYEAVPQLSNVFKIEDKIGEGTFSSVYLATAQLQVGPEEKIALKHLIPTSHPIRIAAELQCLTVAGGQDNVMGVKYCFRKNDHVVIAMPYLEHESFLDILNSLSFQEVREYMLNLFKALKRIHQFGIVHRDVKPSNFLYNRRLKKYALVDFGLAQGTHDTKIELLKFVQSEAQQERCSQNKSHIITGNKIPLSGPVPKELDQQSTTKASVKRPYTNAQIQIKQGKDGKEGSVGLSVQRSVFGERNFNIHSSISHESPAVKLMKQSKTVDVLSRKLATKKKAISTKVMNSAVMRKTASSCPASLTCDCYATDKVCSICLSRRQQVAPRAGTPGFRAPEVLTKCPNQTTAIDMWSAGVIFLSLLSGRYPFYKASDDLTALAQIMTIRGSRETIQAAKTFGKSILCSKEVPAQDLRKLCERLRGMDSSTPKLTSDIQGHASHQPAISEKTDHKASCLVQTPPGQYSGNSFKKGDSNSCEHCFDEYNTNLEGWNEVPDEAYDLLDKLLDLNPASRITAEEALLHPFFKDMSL
Chain of Tyrosyl-DNA phosphodiesterase 2 (O95551 whole entry): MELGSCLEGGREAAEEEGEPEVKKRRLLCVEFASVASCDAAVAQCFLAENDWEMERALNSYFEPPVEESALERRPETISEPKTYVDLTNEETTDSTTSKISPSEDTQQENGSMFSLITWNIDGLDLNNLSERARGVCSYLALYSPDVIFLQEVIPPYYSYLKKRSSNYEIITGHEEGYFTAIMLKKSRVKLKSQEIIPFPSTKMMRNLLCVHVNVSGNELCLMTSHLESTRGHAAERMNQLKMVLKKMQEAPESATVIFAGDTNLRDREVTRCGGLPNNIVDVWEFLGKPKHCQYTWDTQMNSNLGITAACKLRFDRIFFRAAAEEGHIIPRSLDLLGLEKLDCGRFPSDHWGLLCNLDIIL
Chain of Misshapen-like kinase 1 (Q8N4C8 whole entry): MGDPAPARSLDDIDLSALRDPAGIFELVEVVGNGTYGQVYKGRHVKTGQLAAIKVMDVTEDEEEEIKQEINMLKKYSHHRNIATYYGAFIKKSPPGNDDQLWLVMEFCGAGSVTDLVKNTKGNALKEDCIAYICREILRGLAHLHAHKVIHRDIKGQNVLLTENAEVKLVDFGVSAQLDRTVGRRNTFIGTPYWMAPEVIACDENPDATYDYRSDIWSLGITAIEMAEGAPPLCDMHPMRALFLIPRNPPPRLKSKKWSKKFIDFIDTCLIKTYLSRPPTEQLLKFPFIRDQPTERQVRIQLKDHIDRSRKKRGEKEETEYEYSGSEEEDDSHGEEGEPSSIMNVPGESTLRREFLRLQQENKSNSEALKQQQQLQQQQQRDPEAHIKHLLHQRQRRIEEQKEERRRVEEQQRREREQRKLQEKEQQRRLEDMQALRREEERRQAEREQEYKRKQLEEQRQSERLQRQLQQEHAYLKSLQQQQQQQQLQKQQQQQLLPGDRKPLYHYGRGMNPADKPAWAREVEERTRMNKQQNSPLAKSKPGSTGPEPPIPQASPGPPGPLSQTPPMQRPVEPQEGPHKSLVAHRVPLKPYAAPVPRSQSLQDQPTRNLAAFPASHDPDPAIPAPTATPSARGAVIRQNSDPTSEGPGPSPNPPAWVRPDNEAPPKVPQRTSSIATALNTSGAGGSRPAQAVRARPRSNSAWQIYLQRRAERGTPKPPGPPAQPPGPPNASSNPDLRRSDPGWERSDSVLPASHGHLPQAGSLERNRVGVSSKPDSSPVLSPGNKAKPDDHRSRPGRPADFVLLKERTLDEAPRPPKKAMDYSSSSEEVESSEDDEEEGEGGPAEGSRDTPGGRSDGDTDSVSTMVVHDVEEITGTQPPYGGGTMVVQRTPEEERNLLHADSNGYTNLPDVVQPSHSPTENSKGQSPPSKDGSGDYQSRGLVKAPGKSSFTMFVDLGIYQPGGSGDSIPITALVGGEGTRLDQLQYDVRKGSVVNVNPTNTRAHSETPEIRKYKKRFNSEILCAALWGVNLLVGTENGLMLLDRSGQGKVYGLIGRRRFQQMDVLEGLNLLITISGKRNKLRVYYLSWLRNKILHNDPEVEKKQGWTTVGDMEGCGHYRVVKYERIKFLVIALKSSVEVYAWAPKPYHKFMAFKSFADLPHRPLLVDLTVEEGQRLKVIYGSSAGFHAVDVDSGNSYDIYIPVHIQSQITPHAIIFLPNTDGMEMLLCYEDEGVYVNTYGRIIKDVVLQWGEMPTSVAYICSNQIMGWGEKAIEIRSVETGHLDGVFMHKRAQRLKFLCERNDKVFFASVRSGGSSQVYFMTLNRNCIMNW

## CNC[C@H](Cc1ccccc1)NC[C@@H](Cc1cccc2ccccc12)NCCc1ccc(C)cc1
[1]
  EC50: 4.79 µM (active)
[2]
  EC50: 18.5 µM (active)

## Nc1nnc2c(n1)CCCC2
Caspase-3
  IC50: 14.3 µM (active)
[3]
  IC50: 7.19 µM (active)

## O=C(Cc1ccccc1Cl)NC1(O)C(=O)c2ccccc2C1=O
[3]
  IC50: 12 µM (active)
[4]
  IC50: 11.5 µM (inactive)

## O=C(N/N=C/c1c(O)ccc2ccccc12)c1[nH]ncc1Br
BJ
  EC50: 7.88 µM (active)
Cells [5]
  EC50: 10.7 µM (active)
[6]
  EC50: 3.04 µM (active)
Caspase-3
  IC50: 27.7 µM (active)

## Nc1c(-c2ccc(NC(=O)Nc3cccc(C(F)(F)F)c3)cc2)cnc2c(-c3ccc4c(c3)OCO4)cnn12
[7]
  Ki: > 3.98 µM (inactive)

## O=C(Nc1cc(-c2c[nH]c3ncccc23)cc(Cl)n1)c1ccccc1
[8]
  Ki: 0.00158 µM (active)
[9]
  Ki: > 3.98 µM (inactive)
[7]
  Ki: > 3.98 µM (inactive)
Misshapen-like kinase 1
  Ki: > 2.51 µM (inactive)

## CCN1C(=Cc2sc3ccccc3[n+]2C)C=Cc2cccc(C)c21
[1]
  EC50: 4.08 µM (active)
Cells [10]
  EC50: > 12 µM (not active)
[11]
  EC50: < 0.1 µM (active)
[12]
  AC50: 1.86 µM (active)
[13]
  AC50: 9.01 µM (active)
